From paper PMC7000700, “RyR1-targeted drug discovery pipeline integrating FRET-based high-throughput screening and human myofiber dynamic Ca^2+ assays” (Scientific Reports, 2020)

What was measured:
RyR2 [1] = biological target: T1, RyR2 (Sus scrofa, UniProt A0A5G2R1W3); assay: [3H]ryanodine binding to cardiac SR vesicles; format: biochemical, porcine; design: RyR1 in skeletal SR membranes, and RyR2 in cardiac SR membranes; from tissue; host or cells: porcine cardiac left ventricle (crude SR vesicles); details: micromolar compound, significant only with CaM at 30 nM Ca2+ and only without CaM at 30 μM Ca2+
Procedure: To evaluate the functional impact of compounds identified through our FRET-based screen, we first used [^3H]ryanodine binding assays. The level of [^3H]ryanodine binding to RyRs in SR membranes is a well-established index of the RyR channel activity. Given the role of CaM binding in our FRET readout, we investigated whether CaM influences the functional effect of the Hit compounds by carrying out [^3H]ryanodine binding assays in the absence and presence of CaM (300 nM).
Crude sarcoplasmic reticulum (CSR) vesicles were isolated from porcine longissimus dorsi muscle and porcine cardiac left ventricle tissue by differential centrifugation of homogenized tissue. […] Immediately prior to the fluorescence or [^3H]ryanodine binding studies described below, the SR vesicles were stripped of residual endogenous CaM by incubation with a peptide derived from the CaM binding domain of myosin light chain kinase, followed by sedimentation.
In 96-well plates, HSR vesicles (1 mg/ml) and cardiac CSR vesicles (3 mg/mL) were pre-incubated with 0.02% DMSO or Hit compound, with or without 300 nM CaM, for 30 min at 22 °C in a solution containing 150 mM KCl, 5 mM GSSG, 1 µg/mL Aprotinin/Leupeptin, 1 mM EGTA, and 65 µM or 1.02 mM CaCl2 (as determined by MaxChelator to yield 30 nM or 30 μM of free Ca^2+, respectively), 0.1 mg/mL BSA and 20 mM K-PIPES (pH 7.0). […]

MH-linked RyR1 mutant = system: MH-linked RyR1 mutant; design: method as in PMID 29674523; details: HEK293 cells; cited from earlier work
RyR1 = RyR1 (Sus scrofa, UniProt P16960); design: RyR1 in skeletal SR membranes; from tissue; host or cells: porcine longissimus dorsi muscle (heavy SR vesicles); method as in PMID 27760856; details: NIH Clinical Collection screen; cited from earlier work
RyR2 [2] = biological target: T1, RyR2; assay: FLT-FRET between D-FKBP and A-CaM bound to RyR2 in cardiac SR membranes (dose-response); format: binding, porcine; design: RyR1 in skeletal SR membranes, and RyR2 in cardiac SR membranes; from tissue; host or cells: porcine cardiac left ventricle (crude SR vesicles); details: RyR2 samples, 30 nM Ca2+
Procedure: Necessary counter-screens to our pathological RyR1 conditions include evaluating compound effects in healthy conditions and on the cardiac isoform, RyR2. Using the same FRET assay as in HTS, we tested the dose response of key Hits from this screen and the previously HTS-identified RyR1 inhibitor, chloroxine, on healthy (5 mM GSH) and pathological (5 mM GSSG) conditions for both RyR1 in skeletal SR membranes, and RyR2 in cardiac SR membranes.
Skeletal HSR and cardiac CSR (0.4 mg/ml) membranes were independently pre-incubated with 60 nM D-FKBP, for 90 min, at 37 °C, in a solution containing 150 mM KCl, 5 mM GSH, 0.1 mg/mL BSA, 1 µg/mL Aprotinin/Leupeptin, 1 mM DTT and 20 mM PIPES (pH 7.0). To remove unbound D-FKBP, the SR membranes were spun down at 110,000 × g for 20 min, and then resuspended to 1 mg/mL (skeletal HSR) and 2 mg/mL (cardiac CSR) in binding buffer consisting of 150 mM KCl, 5 mM GSSG, 0.1 mg/mL BSA, 1μg/mL Aprotinin/Leupeptin and 20 mM PIPES, pH 7.0. These samples were then incubated with indicated [A-CaM] for 30 min at 22 °C in binding buffer containing 0.065 mM CaCl2 to give 30 nM free Ca^2+ in the presence of 1 mM EGTA (calculated by MaxChelator). This labeled SR sample was applied to the assay plates in 5 μL aliquots using a Multidrop™ Combi reagent dispenser (Thermo Scientific) with a standard-tube. An additional set of the assay plates were loaded with skeletal HSR or cardiac CSR labeled with only D-FKBP (no added A-CaM).
FLT measurements were conducted in a top-read FLT-PR designed and built by Fluorescence Innovations, Inc[33]. AF488 donor fluorescence was excited with a 473-nm microchip laser from Concepts Research Corporation (Belgium, WI), and emission was acquired with 490-nm long-pass and 517/20-nm band-pass filters (Semrock, Rochester, NY).
FLT waveforms for each well were fit based on a one-exponential decay function using least-squares minimization global-analysis software (Fluorescence Innovations, Inc.), as previously described[19],[33]. FRET efficiency (E) was determined as the fractional decrease of donor FLT (τD), due to the presence of acceptor fluorophore (τDA), using the following equation:1 E=1−τDA/τD,

T1 sequence (A0A5G2R1W3 20-4900): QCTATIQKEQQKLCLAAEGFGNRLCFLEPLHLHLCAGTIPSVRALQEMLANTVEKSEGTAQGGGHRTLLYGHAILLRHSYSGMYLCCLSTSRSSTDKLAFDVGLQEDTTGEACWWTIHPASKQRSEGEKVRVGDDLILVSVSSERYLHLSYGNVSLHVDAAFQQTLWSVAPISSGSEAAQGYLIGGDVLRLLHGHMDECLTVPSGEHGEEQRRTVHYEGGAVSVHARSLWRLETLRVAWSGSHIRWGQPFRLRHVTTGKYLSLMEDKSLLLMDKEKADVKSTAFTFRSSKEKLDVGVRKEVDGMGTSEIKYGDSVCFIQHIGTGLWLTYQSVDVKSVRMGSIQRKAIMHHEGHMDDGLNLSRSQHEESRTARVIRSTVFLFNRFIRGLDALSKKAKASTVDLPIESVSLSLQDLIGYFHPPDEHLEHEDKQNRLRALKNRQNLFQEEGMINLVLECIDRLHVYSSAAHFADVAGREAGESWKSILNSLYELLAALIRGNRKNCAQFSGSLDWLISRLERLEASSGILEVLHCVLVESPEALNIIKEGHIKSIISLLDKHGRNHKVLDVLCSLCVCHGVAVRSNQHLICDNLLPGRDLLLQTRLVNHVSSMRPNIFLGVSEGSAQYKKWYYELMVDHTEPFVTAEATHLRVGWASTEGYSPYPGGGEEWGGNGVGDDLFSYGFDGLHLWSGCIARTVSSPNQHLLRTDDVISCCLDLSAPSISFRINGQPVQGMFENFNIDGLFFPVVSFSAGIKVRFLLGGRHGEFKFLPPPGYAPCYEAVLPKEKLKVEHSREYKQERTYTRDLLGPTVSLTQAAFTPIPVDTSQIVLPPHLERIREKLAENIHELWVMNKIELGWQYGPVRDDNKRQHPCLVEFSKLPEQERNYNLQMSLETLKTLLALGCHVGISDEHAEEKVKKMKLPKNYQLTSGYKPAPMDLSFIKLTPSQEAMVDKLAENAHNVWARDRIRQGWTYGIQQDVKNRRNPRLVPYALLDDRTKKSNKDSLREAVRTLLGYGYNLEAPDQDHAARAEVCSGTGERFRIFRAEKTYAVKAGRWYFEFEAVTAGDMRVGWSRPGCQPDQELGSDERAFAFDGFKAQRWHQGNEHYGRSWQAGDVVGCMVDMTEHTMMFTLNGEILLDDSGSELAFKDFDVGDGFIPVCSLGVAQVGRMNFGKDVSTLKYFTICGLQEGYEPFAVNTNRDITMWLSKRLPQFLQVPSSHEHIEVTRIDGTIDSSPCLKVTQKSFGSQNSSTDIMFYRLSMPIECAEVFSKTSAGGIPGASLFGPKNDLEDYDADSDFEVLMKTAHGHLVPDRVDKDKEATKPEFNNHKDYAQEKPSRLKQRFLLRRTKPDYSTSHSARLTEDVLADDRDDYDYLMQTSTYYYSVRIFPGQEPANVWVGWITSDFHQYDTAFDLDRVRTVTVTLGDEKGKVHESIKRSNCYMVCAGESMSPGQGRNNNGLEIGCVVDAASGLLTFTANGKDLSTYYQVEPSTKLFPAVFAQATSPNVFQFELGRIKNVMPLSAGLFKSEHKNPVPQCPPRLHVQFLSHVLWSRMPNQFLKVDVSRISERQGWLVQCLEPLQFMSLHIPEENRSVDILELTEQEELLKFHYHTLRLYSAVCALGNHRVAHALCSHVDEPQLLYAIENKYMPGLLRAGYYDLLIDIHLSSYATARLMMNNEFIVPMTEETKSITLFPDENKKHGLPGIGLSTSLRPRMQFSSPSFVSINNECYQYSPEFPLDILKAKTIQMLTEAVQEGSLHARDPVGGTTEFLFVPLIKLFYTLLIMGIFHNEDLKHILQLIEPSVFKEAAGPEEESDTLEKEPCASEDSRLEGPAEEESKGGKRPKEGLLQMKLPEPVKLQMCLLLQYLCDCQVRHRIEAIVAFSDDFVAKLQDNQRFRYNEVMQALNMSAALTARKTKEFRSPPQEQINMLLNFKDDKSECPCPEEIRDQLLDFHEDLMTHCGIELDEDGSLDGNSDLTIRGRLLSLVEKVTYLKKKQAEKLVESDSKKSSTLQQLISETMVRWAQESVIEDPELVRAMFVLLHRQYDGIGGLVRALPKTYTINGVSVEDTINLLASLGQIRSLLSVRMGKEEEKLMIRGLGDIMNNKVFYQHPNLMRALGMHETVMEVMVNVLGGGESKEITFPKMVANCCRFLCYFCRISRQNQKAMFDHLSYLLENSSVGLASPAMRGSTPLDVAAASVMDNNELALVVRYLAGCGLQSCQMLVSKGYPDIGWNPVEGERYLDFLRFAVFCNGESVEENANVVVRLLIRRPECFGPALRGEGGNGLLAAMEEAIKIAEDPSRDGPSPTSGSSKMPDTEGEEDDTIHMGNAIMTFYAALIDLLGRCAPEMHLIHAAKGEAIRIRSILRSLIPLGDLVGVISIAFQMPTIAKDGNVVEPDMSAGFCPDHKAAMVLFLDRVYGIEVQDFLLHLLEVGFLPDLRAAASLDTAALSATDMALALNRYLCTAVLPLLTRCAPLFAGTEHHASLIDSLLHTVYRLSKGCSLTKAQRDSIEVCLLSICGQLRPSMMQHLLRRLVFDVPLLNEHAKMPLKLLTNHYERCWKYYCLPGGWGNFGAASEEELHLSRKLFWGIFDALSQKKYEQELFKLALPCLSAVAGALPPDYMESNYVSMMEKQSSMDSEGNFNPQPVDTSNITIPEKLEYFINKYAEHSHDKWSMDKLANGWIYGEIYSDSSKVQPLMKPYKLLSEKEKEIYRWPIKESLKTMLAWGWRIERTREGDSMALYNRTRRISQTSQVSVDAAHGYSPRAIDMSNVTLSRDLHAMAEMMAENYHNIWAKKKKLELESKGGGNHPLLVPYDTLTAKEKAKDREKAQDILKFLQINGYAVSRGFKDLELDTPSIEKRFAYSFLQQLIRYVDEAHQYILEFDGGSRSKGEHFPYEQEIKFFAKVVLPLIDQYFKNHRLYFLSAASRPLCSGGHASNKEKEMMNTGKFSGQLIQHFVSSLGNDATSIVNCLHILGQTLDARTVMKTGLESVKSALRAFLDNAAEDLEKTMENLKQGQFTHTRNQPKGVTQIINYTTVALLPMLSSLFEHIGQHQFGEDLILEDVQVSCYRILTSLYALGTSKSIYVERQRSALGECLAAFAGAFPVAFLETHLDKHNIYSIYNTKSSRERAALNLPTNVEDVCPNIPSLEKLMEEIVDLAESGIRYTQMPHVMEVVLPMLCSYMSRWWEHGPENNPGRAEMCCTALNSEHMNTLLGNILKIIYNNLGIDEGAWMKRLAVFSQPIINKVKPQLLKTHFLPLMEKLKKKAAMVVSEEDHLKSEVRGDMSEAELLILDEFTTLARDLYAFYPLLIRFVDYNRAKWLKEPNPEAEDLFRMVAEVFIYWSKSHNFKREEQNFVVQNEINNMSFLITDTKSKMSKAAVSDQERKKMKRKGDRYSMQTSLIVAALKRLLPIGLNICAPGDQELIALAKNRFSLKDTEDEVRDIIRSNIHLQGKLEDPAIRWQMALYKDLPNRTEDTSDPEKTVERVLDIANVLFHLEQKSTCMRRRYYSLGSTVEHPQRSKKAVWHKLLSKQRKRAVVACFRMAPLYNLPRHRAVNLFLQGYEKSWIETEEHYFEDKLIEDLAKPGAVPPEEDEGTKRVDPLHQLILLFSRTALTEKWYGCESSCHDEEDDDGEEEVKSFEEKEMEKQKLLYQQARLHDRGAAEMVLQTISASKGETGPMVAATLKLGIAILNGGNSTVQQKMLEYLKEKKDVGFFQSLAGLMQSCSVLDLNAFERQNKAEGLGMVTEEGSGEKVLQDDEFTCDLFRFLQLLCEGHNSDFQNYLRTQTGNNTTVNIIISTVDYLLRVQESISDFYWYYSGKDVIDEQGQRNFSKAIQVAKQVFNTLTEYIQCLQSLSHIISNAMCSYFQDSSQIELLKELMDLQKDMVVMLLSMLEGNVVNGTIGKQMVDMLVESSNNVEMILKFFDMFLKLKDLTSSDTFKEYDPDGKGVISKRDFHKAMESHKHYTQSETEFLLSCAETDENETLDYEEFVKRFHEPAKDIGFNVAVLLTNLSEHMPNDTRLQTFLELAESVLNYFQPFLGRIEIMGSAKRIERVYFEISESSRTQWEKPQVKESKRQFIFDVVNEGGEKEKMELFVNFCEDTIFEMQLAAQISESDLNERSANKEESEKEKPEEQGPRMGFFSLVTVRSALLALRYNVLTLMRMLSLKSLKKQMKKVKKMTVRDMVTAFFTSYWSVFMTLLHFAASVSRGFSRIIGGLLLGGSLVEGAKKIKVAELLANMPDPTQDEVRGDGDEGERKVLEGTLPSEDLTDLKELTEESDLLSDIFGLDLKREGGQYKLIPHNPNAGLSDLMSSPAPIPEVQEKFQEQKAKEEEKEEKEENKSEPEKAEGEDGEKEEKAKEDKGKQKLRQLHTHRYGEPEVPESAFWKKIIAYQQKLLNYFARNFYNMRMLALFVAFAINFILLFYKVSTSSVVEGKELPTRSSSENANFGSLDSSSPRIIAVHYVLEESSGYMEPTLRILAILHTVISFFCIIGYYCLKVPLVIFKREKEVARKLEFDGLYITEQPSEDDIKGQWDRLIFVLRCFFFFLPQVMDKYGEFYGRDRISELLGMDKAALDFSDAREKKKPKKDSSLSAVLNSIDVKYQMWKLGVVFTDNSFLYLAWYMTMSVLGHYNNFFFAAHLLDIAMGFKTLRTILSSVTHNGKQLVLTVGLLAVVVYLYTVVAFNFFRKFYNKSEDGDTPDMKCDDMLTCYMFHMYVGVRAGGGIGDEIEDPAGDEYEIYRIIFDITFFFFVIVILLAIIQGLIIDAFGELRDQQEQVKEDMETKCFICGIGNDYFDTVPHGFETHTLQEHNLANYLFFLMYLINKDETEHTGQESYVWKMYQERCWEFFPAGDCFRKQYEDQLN

SMILES | Effect on [3H]ryanodine binding (RyR2 [1]) | Effect on readout of ER Ca2+ phenotypic screen (MH-linked RyR1 mutant) | Effect on FRET in previous 384-well screen (RyR1) | Effect on FRET (RyR2 [2])
O=c1c(O)c(-c2cc(O)c(O)c(O)c2)oc2cc(O)cc(O)c12 [myricetin] | only inhibits | – | – | –
Oc1c(Cl)cc(Cl)c2cccnc12 [chloroxine] | – | increased RyR1 activity | increased FRET | did not alter FRET
